In data set [1] the test system is human HCC cell line HepG2. As to the kind of experiment: cells. In kind it is cell-based. The note with it: Homo sapiens, HepG2, 72 h, 72 h, neutral red; Supplementary Table 2; read-out: Anticancer (HepG2) IC50. On the procedure: The safe compounds on RBCs (5a-g, 5i-l, 5p-r, 5v-w, 6b-g) were screened for their potential anticancer activity against human HCC cell line HepG2. HepG2 cells were exposed to the test compounds, then viability of cells was measured using neutral red uptake assay as described by Borenfreund and Puerner. This assay depends on the fact that neutral red dye can be incorporated into the lysosomes of living cells providing a quantitative assay to the cytotoxic effects. The results were interpreted to calculate both the concentration causing 50% cancer cell death (IC50) of each compound and the maximum safe concentration that cause 100% viability (LD0; to be used in the in vitro anti-HCV testing) using GraphPad InStat 3.0 software (Figure 5 & Supplementary Table 2).
HepG2 cells were routinely maintained as adherent cell cultures in RPMI-1640 medium (Lonza Group Ltd, Basel, Switzerland) supplemented with 10% fetal bovine serum (FBS; Lonza, IL, USA) at 37°C in a humidified air incubator containing 5% CO2. Cells were subcultured for 2 weeks before assay. Cell viability was assessed using trypan blue exclusion method.
HepG2 cells were washed twice in RPMI-1640 medium supplemented with 200 μM L-glutamine (Lonza) and […] 4-(2-hydroxyethyl)-1-piperazineethanesulfonic acid (HEPES) buffer (Lonza). The cells were suspended at 3 × 10^4 cells/ml in RPMI culture medium (RPMI supplemented medium and 10% FBS). The appropriate number of cells was chosen to be 3 × 10^3 cells/well (100 μl of the prepared suspension), and the cells were left to adhere on the polystyrene 96-well plates in an incubator at 37°C, 5% CO2 and 95% humidity for 24 h. The cells were washed once using RPMI supplemented medium.
A 2 mg/ml stock solution of each compound was prepared in DMF and filtered using a 0.2 μM syringe filter. The desired concentrations (20, 10, 5, 2.5 and 1.25 μg/ml) were prepared using serial dilution in a 96-well plate. Compound wells were prepared by adding 100 μl of the previously prepared concentrations to a 100 μl of HepG2 cells suspension. Parallel concentrations of the solvent were prepared to be used as controls. 5-Fluorouracil was used as a positive control. Control wells were prepared by adding 100 μl culture media to a 100 μl of HepG2 cells suspension. Blank wells contained 200 μl of culture media only (without cells or compound solution). Each set of samples was pipetted in duplicate. The plate was gently shaken, then incubated at 37°C, 5% CO2 for 72 h.
After incubation, the plate was centrifuged (2000 r.p.m. for 10 min). The media were discarded by inversion over paper towels. A working solution (100 μg/ml) of neutral red stain (Bio Basic Inc, Markham, Canada) was prepared, and 100 μl of this solution was added to each well, then the plate was gently shaken. The plate was incubated at 37°C in humidified 5% CO2 for 3 h, and then centrifuged (2000 r.p.m. for 10 min). Excess dyes were discarded, and the cells were fixed with 100 μl fixing solution (0.5% formalin with 1% calcium chloride [Sigma-Aldrich]) for 1 min. Cells were destained in 100 μl destaining solution (50% ethanol with 1% glacial acetic acid [Sigma-Aldrich]) for 5 min by shaking. The stain intensity was assayed using automated microplate reader spectrophotometer adjusted at 490 nm. Surviving cell fraction was calculated according to the following equation: [drawing 3]
The results were interpreted to calculate both the concentration causing 50% cancer cell death (IC50) of each compound and the maximum safe concentration that cause 100% viability (LD0; to be used in the in vitro anti-HCV testing) using GraphPad InStat 3.0 software.

Data set [2] is described as follows: Solubility in DMF or DMSO under experimental conditions. Type of data set: physicochemical.
Data set [3] can be described thus: In vitro hemolytic assay. In kind it is cell-based. The note with it: 2% erythrocyte suspension (washed red blood cells); 2% erythrocyte suspension, 3 μl of 1 mg/ml compound in DMF per 240 μl well, 37°C 30 min, absorbance 405 nm; <5% considered nontoxic. The protocol:
(§1) Compounds 5a-x and 6a-h were subjected to the in vitro hemolytic assay to identify those which cause hemolysis to red blood cells (RBCs). Consequently, these compounds would be toxic in vivo so they were excluded from further biological screening.
(§2) Blood samples (5 ml) were freshly collected into heparinized tubes and were centrifuged (1000 r.p.m. for 20 min) at room temperature. The plasma and buffy coat were removed by Pasteur pipette, and the collected erythrocytes were washed three-times using isotonic buffer solution (0.9% sodium chloride [Sigma-Aldrich, MO, USA]) by centrifugation (2500 r.p.m. for 10 min). A two percent erythrocyte suspension was prepared to be used in the assay.
(§3) A 1 mg/ml stock solution of each compound was prepared in DMF (Sigma-Aldrich). Compound wells were prepared by adding 3 μl of the compound solution to 117 μl isotonic buffer solution and 120 μl erythrocyte suspension. Compounds color blank wells were prepared by adding 3 μl compound to 237 μl isotonic buffer solution. Solvent (DMF) wells were prepared by adding 3 μl DMF to 117 μl isotonic buffer solution and 120 μl erythrocyte suspension. Positive control wells (representing 100% hemolysis) were prepared by adding 120 μl erythrocyte suspension to 120 μl distilled water, while negative control wells (representing 0% hemolysis) were prepared by adding 120 μl erythrocyte suspension to 120 μl isotonic buffer solution. Finally, blank wells contained only 240 μl isotonic buffer solution. Each set of samples was pipetted in triplicate. The microtiter plate was then shaken well on bench, incubated at 37°C for 30 min then centrifuged (2000 rpm for 5 min) at room temperature.
(§4) A fraction of the supernatant layer (150 μl) of each well was transferred to another 96-well microtiter plate. Erythrocyte hemolysis was determined by reading the absorbance (A) of liberated hemoglobin at 405 nm in the supernatant fraction compared with the 100% hemolysis of erythrocyte. The average value was calculated from triplicate assay: [drawing 2]

The test system of data set [4] is red blood cells (RBCs). As to the kind of experiment: In vitro hemolytic assay. The note with it: <5% hemolysis nontoxic, 5% or more toxic and hemolytic. Type of data set: cell-based. On the procedure:
as §1, §2, §3, §4

Structures are written as SMILES. Converted amounts (≈) assume the structure as drawn.

The term IC50 denotes the concentration at which inhibition is half-maximal. Take `O=c1[nH]cc(F)c(=O)[nH]1` [Compound 5-FU, 5-Fluorouracil, reference compound]: the concentration for half-maximal inhibition (IC50) in data set [1] is 0.9 µg/mL (≈ 6.92 µM).

In general, melting point refers to the temperature of the solid-liquid transition. `COc1ccc(N2C(=O)C(=Cc3cn(-c4ccccc4)nc3-c3ccc(Cl)cc3)SC2=NN=C(C)c2cc3ccccc3o2)cc1` [Compound 5h, 2-[1-(Benzofuran-2-yl)ethylidenehydrazono]-5-{[3-(4-chlorophenyl)-1-phenyl-1H-pyrazol-4-yl]methylene}-3-(4-methoxyphenyl)thiazolidin-4-one] gave a melting point of 280 to 282 °C. The “solubility in DMF or DMSO” value in data set [2] was “could not be dissolved”.

As for `CC(=NN=C1SC(=Cc2cn(-c3ccccc3)nc2-c2ccccc2)C(=O)N1c1ccccc1)c1nc2ccccc2[nH]1` [Compound 5m, 2-[1-(1H-Benzimidazole-2-yl)ethylidenehydrazono]-5-[(1,3-Diphenyl-1H-pyrazol-4-yl)methylene]-3-phenylthiazolidin-4-one], the melting point is more than 300 °C. In data set [3], this compound yielded a hemolysis at 30 min, 12.5 µg/ml of 11.7%. With `CC(=NN=C1SC(=Cc2cn(-c3ccccc3)nc2-c2ccc(Cl)cc2)C(=O)N1c1ccccc1)c1nc2ccccc2[nH]1` [Compound 5n, 2-[1-(1H-Benzimidazole-2-yl)ethylidenehydrazono]-5-{[3-(4-chlorophenyl)-1-phenyl-1H-pyrazol-4-yl]methylene}-3-phenylthiazolidin-4-one], the melting point was more than 300 °C. Moreover, in data set [3], the hemolysis at 30 min, 12.5 µg/ml turned out to be 9.52%.

`COc1ccc(-c2nn(-c3ccccc3)cc2C=C2SC(=NN=C(C)c3nc4ccccc4[nH]3)N(c3ccccc3)C2=O)cc1` [Compound 5o, 2-[1-(1H-Benzimidazole-2-yl)ethylidenehydrazono]-5-{[3-(4-methoxyphenyl)-1-phenyl-1H-pyrazol-4-yl]methylene}-3-phenylthiazolidin-4-one] registered a melting point of more than 300 °C. Further, the hemolysis at 30 min, 12.5 µg/ml in data set [3] was 15.1%. For the compound `COc1ccc(N2C(=O)C(=Cc3cn(-c4ccccc4)nc3-c3ccccc3)SC2=NN=C(C)c2nc3ccccc3[nH]2)cc1` [Compound 5s, 2-[1-(1H-Benzimidazole-2-yl)ethylidenehydrazono]-5-[(1,3-Diphenyl-1H-pyrazol-4-yl)methylene]-3-(4-methoxyphenyl)thiazolidin-4-one], the “solubility in DMF or DMSO” value in data set [2] is listed as “could not be dissolved”.

As to `COc1ccc(N2C(=O)C(=Cc3cn(-c4ccccc4)nc3-c3ccc(Cl)cc3)SC2=NN=C(C)c2nc3ccccc3[nH]2)cc1` [Compound 5t, 2-[1-(1H-Benzimidazole-2-yl)ethylidenehydrazono]-5-{[3-(4-chlorophenyl)-1-phenyl-1H-pyrazol-4-yl]methylene}-3-(4-methoxyphenyl)thiazolidin-4-one], the “solubility in DMF or DMSO” value in data set [2] is on record as “could not be dissolved”. The same measure, in the same setting: the value for `COc1ccc(-c2nn(-c3ccccc3)cc2C=C2SC(=NN=C(C)c3nc4ccccc4[nH]3)N(c3ccc(OC)cc3)C2=O)cc1` [Compound 5u, 2-[1-(1H-Benzimidazole-2-yl)ethylidenehydrazono]-5-{[3-(4-methoxyphenyl)-1-phenyl-1H-pyrazol-4-yl]methylene}-3-(4-methoxyphenyl)thiazolidin-4-one] was “could not be dissolved”. Compound `COc1ccc(-c2nn(-c3ccccc3)cc2C=C2SC(=NN=C(C)c3nc4ccccc4[nH]3)N(C3CCCCC3)C2=O)cc1` [Compound 5x, 2-[1-(1H-Benzimidazole-2-yl)ethylidenehydrazono]-5-{[3-(4-methoxyphenyl)-1-phenyl-1H-pyrazol-4-yl]methylene}-3-cyclohexylthiazolidin-4-one] gave a melting point of 215 to 217 °C. In data set [3], the hemolysis at 30 min, 12.5 µg/ml came out at 8.74%. Moreover, the “toxicity to RBCs (hemolysis), in words” value in data set [4] was “cause hemolysis to RBCs”. With `CC(=NN=C1SC(=C2C(=O)Nc3ccccc32)C(=O)N1c1ccccc1)c1cc2ccccc2o1` [Compound 6a, 2-[1-(Benzofuran-2-yl)ethylidenehydrazono]-5-(2-oxoindolin-3-ylidene)-3-phenylthiazolidin-4-one], in data set [3], the hemolysis at 30 min, 12.5 µg/ml was 11.2%. Moreover, in data set [4], the “toxicity to RBCs (hemolysis), in words” value was “cause hemolysis to RBCs”. `CC(=NN=C1SC(=C2C(=O)Nc3ccccc32)C(=O)N1C1CCCCC1)c1nc2ccccc2[nH]1` [Compound 6h, 2-[1-(1H-Benzimidazole-2-yl)ethylidenehydrazono]-5-(2-oxoindolin-3-ylidene)-3-cyclohexylthiazolidin-4-one] registered a hemolysis at 30 min, 12.5 µg/ml in data set [3] of 7.56%. In data set [4], the “toxicity to RBCs (hemolysis), in words” value is reported as “cause hemolysis to RBCs”.
